Molecules are shown by their SMILES. Where a name gives a salt, the structure may show the parent alone.

For one data set, the system named is cyclooxygenase. In words: standard assay system using polymorphonuclear leukocytes, HHT or TXB2 production. It counts as cell-based. The following applies: polymorphonuclear leukocytes from guinea pig (whole cells), [1-14C] arachidonic acid, 37°C, 5 minutes; production of HHT or TXB2; read-out: concentrations for 50% inhibitions on cyclooxygenase. As to the method: Therefore, it is comfirmed that the compound (a) inhibits both enzymes at the same time at a very low concentration, and that the compounds (b), (c) and (d) inhibit 5-lipoxygenase slightly specifically at a very low concentration.
The experiments for screening using polymorphonuclear leukocytes were carried out as follows: The reaction mixture (0.1 ml) containing 5 µmole of potassium phosphase at pH 7.4, 0.1 µmole of calcium chloride, polymorphonuclear leukocytes prepared from guinea pigs (4 x 10^7 cells) and test compound was preincubated for 5 minutes at 37°C. The reaction was started by the addition of [1-^14C] arachidonic acid (2.2 x 10^3 dpm, 1.8 pmole), followed by the incubation at 37°C for 5 minutes. The reaction was terminated by the addition of 0.3 ml of a mixture of ether/methanol/lM citric acid (30/4/1). The organic phase (20 µl) was applied to silica gel plate. Thin layer chromatography was performed to separate each product with solvent system of ether/petroleum ether/acetic acid (85/15/0.1).
Activities of 5-lipoxygenase and cyclooxygenase were calculated from the measurements of the productions of 5-HETE, and 12L-hydroxy-5, 8, 10-[…] acid (i.e. HHT) or thromboxane B2 (i.e. TXB2) respectively. [it has been known that HHT and TXB2 were the last products of the system concerning cyclooxygenase in the arachidonate cascade.] The concentrations for 50% inhibitions on 5-lipoxygenase and on cyclooxygenase were evaluated by using the concentrations of compounds of the present invention required 50% inhibitions on the productions of 5-HETE, and HHT or TXB2.

In the next data set the test system is mice. In words: acute toxicity by intravenous injection. It counts as in vivo. The following applies: intravenous injection to tail vein, doses of 30 mg/Kg. As to the method:
On the other hand, all extent of the compounds of the present invention were confirmed that their acute toxicities were more than 30 mg/Kg by intravenous injection. Therefore, the compounds of the present invention may be considered to be sufficiently safe and suitable for medical use.

For `CCOC(=O)/C=C/c1cccc(N)c1O` [Example 1, 2-Amino-6-[2-ethoxycarbonyl-(lE)-vinyl]-phenol hydrochloride], the IC50 with cyclooxygenase was determined as 1000 nM.

Turning to `CCOC(=O)/C=C/c1cc(Cl)cc(N)c1O.Cl` [Example 1(a), 2-Amino-4-chloro-6-[2-ethoxycarbonyl-(1E)-vinyl]phenol hydrochloride], the “dead cases in test of acute toxicity” value in the data set on mice was “no dead case in 21 cases”.

On to `Nc1cc(/C=C/C(=O)OCc2ccc(-c3ccccc3)cc2)ccc1O` [Example 1(h), 2-Amino-4-[2-[4-biphenylmethbxycarbonyl]-(1E)-vinyl]-phenol], for which the IC50 in the data set on cyclooxygenase came to 10000 nM.

Regarding `CCOC(=O)/C=C/c1cc(Sc2ccccc2)cc(N)c1O` [Example 1(j), 2-Amino-6-[2-ethoxycarbonyl-(lE)-vinyl]-4-phenylthiophenol hydrochloride], the IC50 in the data set on cyclooxygenase was 600 nM.

As to `CCOC(=O)/C=C/C=C/c1cc(Cl)cc(N)c1O` [Example 1(b), 2-Amino-4-chloro-6-[4-ethoxycarbonyl-(lE, 3E)-butadienyl]phenol hydrochloride], the “dead cases in test of acute toxicity” value with mice is on record as “no dead case in 21 cases”.

Take `COC(=O)/C=C/c1cc(N)c(O)c(OC)c1.Cl` [Example 1(e), 2-Amino-6-methoxy-4-[2-methoxycarbonyl-(1E)-vinyl]phenol hydrochloride]: the “dead cases in test of acute toxicity” value in the data set on mice was “no dead case in 21 cases”.

In the case of `CCOC(=O)/C=C/c1ccc(O)c(N)c1` [Example 1(d), 2-Amino-4-[2-ethoxycarbonyl-(1E)-vinyl]-phenol hydrochloride], the IC50 in the data set with cyclooxygenase was 2200 nM.
